pIC50: −log10 of the molar value.
Tested on: 777334-354-R2-J4-PDC tumor spheroids with HUVEC/MSC, viability
Test: Anticancer human tumor 777334-354-R2-J4-PDC patient-derived pancreatic adenocarcinoma cell line growth inhibition [GQUAD]
Details: for pIC50: curve of first compound; for viability, T/C: stronger effect = lower value
Procedure, shortened: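 Tumor cells were grown as complex spheroids with HUVEC endothelial cells and mesenchymal stem cells as stroma. G-quadruplex stabilizers were combined with targeted agents over half-log dilutions from near the clinical Cmax, or from 10 microM.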

[1] = second compound 0.0316 µM, first compound 0.0316 µM
[2] = second compound 0.0316 µM, first compound 0.1 µM
[3] = second compound 0.0316 µM, first compound 0.316 µM
[4] = second compound 0.0316 µM, first compound 1 µM
[5] = second compound 0.0316 µM, first compound 3.16 µM
[6] = second compound 0.0316 µM, first compound 10 µM
[7] = second compound 0.1 µM, first compound 0.0316 µM
[8] = second compound 0.1 µM, first compound 0.1 µM
[9] = second compound 0.1 µM, first compound 0.316 µM
[10] = second compound 0.1 µM, first compound 1 µM
[11] = second compound 0.1 µM, first compound 3.16 µM
[12] = second compound 0.1 µM, first compound 10 µM
[13] = second compound 0.316 µM, first compound 0.0316 µM
[14] = second compound 0.316 µM, first compound 0.1 µM
[15] = second compound 0.316 µM, first compound 0.316 µM
[16] = second compound 0.316 µM, first compound 1 µM
[17] = second compound 0.316 µM, first compound 3.16 µM
[18] = second compound 0.316 µM, first compound 10 µM
[19] = second compound 1 µM, first compound 0.0316 µM
[20] = second compound 1 µM, first compound 0.1 µM
[21] = second compound 1 µM, first compound 0.316 µM
[22] = second compound 1 µM, first compound 1 µM
[23] = second compound 1 µM, first compound 3.16 µM
[24] = second compound 1 µM, first compound 10 µM
[25] = second compound 3.16 µM, first compound 0.0316 µM
[26] = second compound 3.16 µM, first compound 0.1 µM
[27] = second compound 3.16 µM, first compound 0.316 µM
[28] = second compound 3.16 µM, first compound 1 µM
[29] = second compound 3.16 µM, first compound 3.16 µM
[30] = second compound 3.16 µM, first compound 10 µM
[31] = second compound 10 µM, first compound 0.0316 µM
[32] = second compound 10 µM, first compound 0.1 µM
[33] = second compound 10 µM, first compound 0.316 µM
[34] = second compound 10 µM, first compound 1 µM
[35] = second compound 10 µM, first compound 3.16 µM
[36] = second compound 10 µM, first compound 10 µM
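Further: spheroids exposed to compounds for 7 days before readout.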

`C=CCn1c(=O)c2cnc(Nc3ccc(N4CCN(C)CC4)cc3)nc2n1-c1cccc(C(C)(C)O)n1` + Cc1[nH]c2ccc(F)cc2c1-c1nc2c3cccnc3c3ncccc3c2[nH]1 was tested, and the pIC50 (second compound 0.0316 µM) was 6.14, the pIC50 (second compound 0.1 µM) was 6.06 and the pIC50 (second compound 0.316 µM) was 6.13. For the same molecule, the pIC50 (second compound 1 µM) was 6.15, the pIC50 (second compound 3.16 µM) was 7.50 and the pIC50 (second compound 10 µM) was over 7.50. It also gave a viability, T/C [1] of 100%, a viability, T/C [2] of 106% and a viability, T/C [3] of 79.5%. For the same molecule, the viability, T/C [4] was 39.5%, the viability, T/C [5] was 30.6% and the viability, T/C [6] was 34.6%. For the same molecule, the viability, T/C [7] was 87.5%, the viability, T/C [8] was 92.9% and the viability, T/C [9] was 78%. It also gave a viability, T/C [10] of 46.6%, a viability, T/C [11] of 33.1% and a viability, T/C [12] of 34.5%. It also gave a viability, T/C [13] of 94.3%, a viability, T/C [14] of 99.8% and a viability, T/C [15] of 82.8%. The viability, T/C [16] was 38.3%, the viability, T/C [17] was 36.7% and the viability, T/C [18] was 30.9%. For the same molecule, the viability, T/C [19] was 75.3%, the viability, T/C [20] was 77.5% and the viability, T/C [21] was 73.1%. It also gave a viability, T/C [22] of 40.1%, a viability, T/C [23] of 34% and a viability, T/C [24] of 28.1%. It also gave a viability, T/C [25] of 50.4%, a viability, T/C [26] of 36.9% and a viability, T/C [27] of 50.8%. For the same molecule, the viability, T/C [28] was 12.8%, the viability, T/C [29] was 14% and the viability, T/C [30] was 14.2%. The viability, T/C [31] was 31.7%, the viability, T/C [32] was 27.5% and the viability, T/C [33] was 24.7%. For the same molecule, the viability, T/C [34] was 14.8%, the viability, T/C [35] was 14.1% and the viability, T/C [36] was 11.2%.

Molecule `CC(C)(O)C1CCC(Nc2ccc3ncc(-c4cccc(C(F)(F)F)c4)n3n2)CC1` (centres undefined) + Cc1[nH]c2ccc(F)cc2c1-c1nc2c3cccnc3c3ncccc3c2[nH]1 has a pIC50 (second compound 0.0316 µM) of 5.82, a pIC50 (second compound 0.1 µM) of 5.88 and a pIC50 (second compound 0.316 µM) of 5.97. The pIC50 (second compound 1 µM) was 6.06, the pIC50 (second compound 3.16 µM) was over 7.50 and the pIC50 (second compound 10 µM) was over 7.50. The viability, T/C [1] was 82.8%, the viability, T/C [2] was 97.5% and the viability, T/C [3] was 87.3%. For the same molecule, the viability, T/C [4] was 59.9%, the viability, T/C [5] was 30.1% and the viability, T/C [6] was 33.9%. The viability, T/C [7] was 96.7%, the viability, T/C [8] was 94.5% and the viability, T/C [9] was 84.8%. It also gave a viability, T/C [10] of 55%, a viability, T/C [11] of 35.1% and a viability, T/C [12] of 32.4%. For the same molecule, the viability, T/C [13] was 96.7%, the viability, T/C [14] was 87.2% and the viability, T/C [15] was 87%. It also gave a viability, T/C [16] of 51.2%, a viability, T/C [17] of 30.3% and a viability, T/C [18] of 32.7%. The viability, T/C [19] was 86.7%, the viability, T/C [20] was 68.2% and the viability, T/C [21] was 82.4%. It also gave a viability, T/C [22] of 46.1%, a viability, T/C [23] of 29.7% and a viability, T/C [24] of 24.6%. For the same molecule, the viability, T/C [25] was 35.1%, the viability, T/C [26] was 28.4% and the viability, T/C [27] was 23.2%. The viability, T/C [28] was 12.9%, the viability, T/C [29] was 8.53% and the viability, T/C [30] was 10.5%. It also gave a viability, T/C [31] of 26.7%, a viability, T/C [32] of 27.6% and a viability, T/C [33] of 18%. It also gave a viability, T/C [34] of 12.3%, a viability, T/C [35] of 7.51% and a viability, T/C [36] of 7.22%.
